tested on: HBV; experiment: HBV infection of HepG2-NTCP cells, HBeAg AlphaLISA readout; assay type: cell-based; conditions: Hepatitis B virus, 192 h, 2000 GE/cell, HBeAg in supernatant at day 8 post infection, 50% reduction relative to DMSO controls, read-out: Cellular EC50
Protocol: HepG2-NTCP A3 cells were maintained in DMEM media supplemented with GlutaMAX™, 10% fetal bovine serum, 1% penicillin/streptomycin, and 5 ug/mL puromycin at 37° C. in a humidified atmosphere with 5% CO2 in a collagen-coated tissue culture flask.
HepG2-NTCP cells were seeded in 384 well plate containing 16,000 cells/well two days prior to the infection. On the day of infection, compounds were 3-fold serially diluted in DMSO and pre-incubated with HepG2-NTCP cells for two hours before purified HBV addition. HBV infection was carried out at 2000 GE/cell with 4% PEG, and the final concentration of DMSO is 0.5%. On day one post infection, HBV-containing media was aspirated, cells were washed once with PBS and then maintained in 2.5% DMSO containing media for the remainder of the assay.
Supernatants from infected HepG2-NTCP cells were collected at day 8 post infection, and the amount of viral antigen HBeAg was measured by HBeAg AlphaLISA detection kit (PerkinElmer) following the manufacturer's recommended protocol. Irrespective of readout, compound concentrations that reduce viral product accumulation in supernatants by 50% relative to DMSO controls (EC50) are reported. EC50 ranges are as follows: A<0.1 µM; B 0.1-1 µM; C>1 µM.

Row | Structure (SMILES) | EC50 [nM]
1 | CN1[C@H](C2CC2)CN(c2ccccc2)c2cc3c(cc2S1(=O)=O)-c1cc(C(=O)O)ccc1CO3 [Example 2, (R)-10-cyclopropyl-11-methyl-8-phenyl-8,9,10,11-tetrahydro-5H-benzo[3,4]chromeno[7,6-f][1,2,5]thiadiazepine-2-carboxylic acid 12,12-dioxide] | 100 to 1000
2 | CN1[C@H](CC2CC2)CN(c2ccccc2)c2cc3c(cc2S1(=O)=O)-c1cc(C(=O)O)ccc1CO3 [Example 3] | 100 to 1000
3 | CC(C)C[C@@H]1CN(c2ccccc2)c2cc3c(cc2S(=O)(=O)N1C)-c1cc(C(=O)O)ccc1CO3 [Example 4, (R)-10-isobutyl-11-methyl-8-phenyl-8,9,10,11-tetrahydro-5H-benzo[3,4]chromeno[7,6-f][1,2,5]thiadiazepine-2-carboxylic acid 12,12-dioxide] | < 100
4 | CN1[C@H](CC(C)(C)C)CN(c2ccccc2)c2cc3c(cc2S1(=O)=O)-c1cc(C(=O)O)ccc1CO3 [Example 5] | < 100
5 | CC(C)[C@@H]1CN(c2ccccc2)c2cc3c(cc2S(=O)(=O)N1C)-c1cc(C(=O)O)ccc1CO3 [Example 6] | 100 to 1000
6 | CCCC[C@@H]1CN(c2ccccc2)c2cc3c(cc2S(=O)(=O)N1C)-c1cc(C(=O)O)ccc1CO3 [Example 7, (R)-10-butyl-11-methyl-8-phenyl-8,9,10,11-tetrahydro-5H-benzo[3,4]chromeno[7,6-f][1,2,5]thiadiazepine-2-carboxylic acid 12,12-dioxide] | < 100
7 | CN1[C@H](C2CCCCC2)CN(c2ccccc2)c2cc3c(cc2S1(=O)=O)-c1cc(C(=O)O)ccc1CO3 [Example 8] | < 100
8 | CCCC[C@@H]1CN(c2ccccc2)c2cc3c(cc2S(=O)(=O)N1C)-c1cccc(C(=O)O)c1CO3 [Example 9] | > 1000
9 | CCCC[C@@H]1CN(c2ccccc2)c2cc3c(cc2S(=O)(=O)N1C)-c1cc(C(=O)O)c(F)cc1CO3 [Example 10, (R)-10-butyl-3-fluoro-11-methyl-8-phenyl-8,9,10,11-tetrahydro-5H-benzo[3,4]chromeno[7,6-f][1,2,5]thiadiazepine-2-carboxylic acid 12,12-dioxide] | < 100
10 | CCCC[C@@H]1CN(c2ccccc2)c2cc3c(cc2S(=O)(=O)N1C)-c1nc(C(=O)O)ccc1CO3 [Example 11, (R)-10-butyl-11-methyl-8-phenyl-8,9,10,11-tetrahydro-5H-pyrido[3′,2′:3,4]chromeno[7,6-f][1,2,5]thiadiazepine-2-carboxylic acid 12,12-dioxide] | > 1000
11 | CC(C)C[C@@H]1CN(c2ccccc2)c2cc3c(cc2S(=O)(=O)N1C)-c1cc(C(=O)O)c(F)c(F)c1CO3 [Example 12, (R)-3,4-difluoro-10-isobutyl-11-methyl-8-phenyl-8,9,10,11-tetrahydro-5H-benzo[3,4]chromeno[7,6-f][1,2,5]thiadiazepine-2-carboxylic acid 12,12-dioxide] | < 100
12 | CN1[C@H](C2CCC2)CN(c2ccccc2)c2cc3c(cc2S1(=O)=O)-c1cc(C(=O)O)c(F)c(F)c1CO3 [Example 13] | < 100
13 | CN1[C@H](C2CCCCC2)CN(c2ccccc2)c2cc3c(cc2S1(=O)=O)-c1cc(C(=O)O)c(F)c(F)c1CO3 [Example 14] | < 100
14 | CCCC[C@@H]1CN(c2ccccc2)c2cc3c(cc2S(=O)(=O)N1C)-c1cc(C(=O)O)sc1CO3 [Example 15, (R)-9-butyl-10-methyl-7-phenyl-7,8,9,10-tetrahydro-4H-thieno[2′,3′:3,4]chromeno[7,6-f][1,2,5]thiadiazepine-2-carboxylic acid 11,11-dioxide] | < 100
15 | CN1[C@H](C2CCC2)CN(c2ccccc2)c2cc3c(cc2S1(=O)=O)-c1cc(C(=O)O)sc1CO3 [Example 16] | < 100
16 | CCCC[C@@H]1CN(c2ccccc2)c2cc3c(cc2S(=O)(=O)N1C)-c1cc(C(=O)O)c(F)c(F)c1CO3 [Example 17] | < 100
17 | CC(C)C[C@@H]1CN(c2ccccc2)c2cc3c(cc2S(=O)(=O)N1C)-c1cc(C(=O)O)sc1CO3 [Example 18, (R)-9-isobutyl-10-methyl-7-phenyl-7,8,9,10-tetrahydro-4H-thieno[2′,3′:3,4]chromeno[7,6-f][1,2,5]thiadiazepine-2-carboxylic acid 11,11-dioxide] | < 100

Row | Structure (SMILES) | EC50 [nM]
18 | CN1[C@H](C2CCCCC2)CN(c2ccccc2)c2cc3c(cc2S1(=O)=O)-c1cc(C(=O)O)sc1CO3 [Example 19] | < 100
19 | CCCC[C@@H]1CN(c2ccccc2)c2cc3c(cc2S(=O)(=O)N1C)-c1cc(C(=O)O)ccc1[C@H](C(F)(F)F)O3 [Example 21a, (5R,10R)-10-butyl-11-methyl-8-phenyl-5-(trifluoromethyl)-8,9,10,11-tetrahydro-5H-benzo[3,4]chromeno[7,6-f][1,2,5]thiadiazepine-2-carboxylic acid 12,12-dioxide] | 100 to 1000
20 | CCCC[C@@H]1CN(c2ccccc2)c2cc3c(cc2S(=O)(=O)N1C)-c1cc(C(=O)O)ccc1[C@@H](C(F)(F)F)O3 [Example 21b, (5S,10R)-10-butyl-11-methyl-8-phenyl-5-(trifluoromethyl)-8,9,10,11-tetrahydro-5H-benzo[3,4]chromeno[7,6-f][1,2,5]thiadiazepine-2-carboxylic acid 12,12-dioxide] | 100 to 1000
21 | CCCC[C@@H]1CN(c2ccccc2)c2cc3c(cc2S(=O)(=O)N1C)-c1cc(C(=O)O)ccc1[C@H](C(C)(C)C)O3 [Example 22a, (5S,10R)-5-(tert-butyl)-10-butyl-11-methyl-8-phenyl-8,9,10,11-tetrahydro-5H-benzo[3,4]chromeno[7,6-f][1,2,5]thiadiazepine-2-carboxylic acid 12,12-dioxide] | > 1000
22 | CCCC[C@@H]1CN(c2ccccc2)c2cc3c(cc2S(=O)(=O)N1C)-c1cc(C(=O)O)ccc1[C@@H](C(C)(C)C)O3 [Example 22b, (5R,10R)-5-(tert-butyl)-10-butyl-11-methyl-8-phenyl-8,9,10,11-tetrahydro-5H-benzo[3,4]chromeno[7,6-f][1,2,5]thiadiazepine-2-carboxylic acid 12,12-dioxide] | > 1000
23 | CCCC[C@@H]1CN(c2ccccc2)c2cc3c(cc2S(=O)(=O)N1C)-c1cc(C(=O)O)ccc1C(C)(C)O3 [Example 23, (R)-10-butyl-5,5,11-trimethyl-8-phenyl-8,9,10,11-tetrahydro-5H-benzo[3,4]chromeno[7,6-f][1,2,5]thiadiazepine-2-carboxylic acid 12,12-dioxide] | 100 to 1000
24 | CCCCC1CN(c2ccccc2)c2cc3c(cc2S(=O)(=O)N1C)-c1cc(C(=O)O)ccc1OC3 (stereo not drawn) [Example 24, 10-butyl-11-methyl-8-phenyl-8,9,10,11-tetrahydro-6H-benzo[3,4]isochromeno[7,6-f][1,2,5]thiadiazepine-2-carboxylic acid 12,12-dioxide] | 100 to 1000
25 | CN1[C@H](C2CCCCC2)CNc2cc3c(cc2S1(=O)=O)-c1cc(C(=O)O)ccc1CO3 [Example 25, (R)-10-cyclohexyl-11-methyl-8,9,10,11-tetrahydro-5H-benzo[3,4]chromeno[7,6-f][1,2,5]thiadiazepine-2-carboxylic acid 12,12-dioxide] | > 1000
26 | CCCC[C@@H]1CN(c2ccccc2)c2cc3c(cc2S(=O)(=O)N1C)-c1cc(C(=O)O)ccc1CN3C [Example 27, (R)-10-butyl-6,11-dimethyl-8-phenyl-5,6,8,9,10,11-hexahydro-[1,2,5]thiadiazepino[7,6-b]phenanthridine-2-carboxylic acid 12,12-dioxide] | < 100
27 | CCCC[C@@H]1CN(c2ccccc2)c2cc3c(cc2S(=O)(=O)N1C)-c1cc(C(=O)O)ccc1CN3C(C)C [Example 28] | 100 to 1000
28 | CCCC[C@@H]1CN(c2ccccc2)c2cc3c(cc2S(=O)(=O)N1C)-c1cc(C(=O)O)ccc1CN3 [Example 29] | 100 to 1000
29 | CN1[C@H](C2CCCCC2)CN(c2ccccc2)c2cc3c(cc2S1(=O)=O)-c1cc(C(=O)O)ccc1CN3c1ccccc1F [Example 30] | > 1000
30 | CN1Cc2ccc(C(=O)O)cc2-c2cc3c(cc21)NC[C@@H](C1CCCCC1)N(C)S3(=O)=O [Example 31, (R)-10-cyclohexyl-6,11-dimethyl-5,6,8,9,10,11-hexahydro-[1,2,5]thiadiazepino[7,6-b]phenanthridine-2-carboxylic acid 12,12-dioxide] | > 1000
31 | CN1[C@H](C2CCCCC2)CNc2cc3c(cc2S1(=O)=O)-c1cc(C(=O)O)ccc1CN3c1ccccc1F [Example 32] | 100 to 1000
32 | CCCC[C@@H]1CN(c2ccccc2)c2cc3c(cc2S(=O)(=O)N1C)-c1cc(C(=O)O)ccc1C1(CC1)N3 [Example 33, (R)-10′-butyl-11′-methyl-8′-phenyl-8′,9′,10′,11′-tetrahydro-6′H-spiro[cyclopropane-1,5′-[1,2,5]thiadiazepino[7,6-b]phenanthridine]-2′-carboxylic acid 12′,12′-dioxide] | > 1000
33 | CCCC[C@@H]1CN(c2ccccc2)c2cc3oc4ccc(C(=O)O)cc4c3cc2S(=O)(=O)N1C [Example 34, (R)-3-butyl-2-methyl-5-phenyl-2,3,4,5-tetrahydrobenzo[2,3]benzofuro[6,5-f][1,2,5]thiadiazepine-10-carboxylic acid 1,1-dioxide] | 100 to 1000

Reference: patent US20240325409A1, “Fused Heterotetracyclic Antiviral Agents” (Enanta Pharmaceuticals, Inc., priority 2023, published 2024)
